Assay results as given in article PMC9701171 (Journal of pharmaceutical and biomedical analysis, 2022).
Like-named read-outs stand apart in the source and are kept apart here.

Assays:
HbA [1] = biological target: T1, HbA (Homo sapiens, UniProt P69905); assay: Steady-state concentration-dependent HbA binding; conditions: for n (Hill coefficient): SS concentration-dependency; for fold enhancement of binding affinity (improvement of KD) relative to 5-HMF: compared to 5-HMF
HbA [2] = biological target: T1, HbA; assay: Time-dependent HbA binding kinetics; conditions: for time to equilibration with HbA: low [AEH]0, assuming first-order conditions; for time to achieve steady state (SS): 0.2 mM HbA, pilot observations
HbA [3] = biological target: T1, HbA; conditions: cited from earlier work
HbS = conditions: cited from earlier work
[4] = Reference Method, sigmoidal Bmax model, PE (COV)

T1 sequence (P69905 2-142 limits assumed): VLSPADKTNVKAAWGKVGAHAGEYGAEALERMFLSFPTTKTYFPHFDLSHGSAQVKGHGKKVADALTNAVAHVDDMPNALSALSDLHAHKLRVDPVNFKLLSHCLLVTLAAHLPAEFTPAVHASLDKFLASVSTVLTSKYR
T1 sequence (P68871 2-147 partner limits assumed): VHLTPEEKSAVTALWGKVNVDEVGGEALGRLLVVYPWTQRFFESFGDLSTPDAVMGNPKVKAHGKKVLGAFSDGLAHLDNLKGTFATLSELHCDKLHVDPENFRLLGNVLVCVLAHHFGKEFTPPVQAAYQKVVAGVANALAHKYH

SMILES	Kd (HbA [1]) [µM]	n (Hill coefficient) (HbA [1]; sigmoidal Bmax model, PE (COV))	fold enhancement of binding affinity (improvement of KD) relative to 5-HMF (HbA [1])	Kd (HbA [2]) [µM]	time to equilibration with HbA (HbA [2])	time to achieve steady state (SS) (HbA [2]) [s]	HbS-AEH adduct (Hb modification) (HbS) [%]	also measured
O=Cc1ccc(C=O)o1 [2,5-DMF, 2,5-Furandicarboxaldehyde]	190	1.7(21%)	2 fold	120	–	–	–	koff (HbA [2]; read-out: koff (first-order dissociation rate constant)): 1.81e-05 s⁻¹
O=Cc1ccc(CO)o1 [5-HMF, 5-Hydroxymethyl-2-furfural]	–	1.1 (10%)	–	–	12 to 20 h	–	–	Bmax (HbA [1]; Universal Method, sigmoidal Bmax model, PE (COV)): 0.20 (6%); time to approach equilibrium (HbA [3]; 5-HMF in the presence of HbA): 24 to 30 h; Bmax (HbA [3]; [4]): 0.092 (10%); Bmax / HbA0 (HbA [3]; [4]): 0.74 (10%); Kd (HbA [3]; [4]): 280 µM; Kd (HbA [3]; read-out: binding affinity, 5-HMF in the presence of HbA): 250 µM
CC(C)n1nccc1-c1ncccc1COc1cccc(O)c1C=O [GBT-440]	110	1.6 (16%)	–	–	–	≤ 120	–	HbA modified to the HbA-AEH adduct at saturation (HbA [1]; steady state, HbA solution): about 50%
COc1ccc(OCc2ccccn2)c(C=O)c1 [INN-310]	–	2.4 (20%)	–	–	–	–	100	–
O=Cc1c(O)cccc1OCc1cccc(CO)n1 [VZHE-039]	–	1.9 (34%)	less than 5 fold	–	less than half an hour	< 360	100	fold shorter t1/2^eq relative to 5-HMF (HbA [2]; current experimental conditions): more than 50 fold
COc1cc(C=O)ccc1O [Vanillin, 4-Hydroxy-5-methoxybenzaldehyde]	1700	–	–	4300	–	–	–	HbA modification (HbA [1]; 5.8 mM, initial pilot study): < 100%
